Measurements published in patent US10994015B2, “EGFR proteolysis targeting chimeric molecules and associated methods of use” (Arvinas Operations, Inc., priority 2016, dated 2021).

Legend:
[1] = biological target: EGFR L858R/T790M/C797S triple mutant (H520*) (Homo sapiens (Human), UniProt P00533, C797S/L858R/T790M); assay: EGFR protein degradation assay (Western blot); format: cell-based; conditions: 72 hours, 300 nM to 10 nM
Protocol: (§1) EGFR Protein Degradation assay
Cells were incubated overnight at 37° C., 5% CO2 prior to compound addition. A 10 mM compound stock in DMSO was serially diluted in DMSO to provide the following stock concentrations: 1, 0.3, 0.1, 0.03 and 0.01 mM. An appropriate volume of each compound dilution, together with a DMSO vehicle control, was added to media to provide a 2× compound solution. […] At the end of the compound treatment, cells were washed once with ice-cold phosphate-buffered saline (PBS) and treated with lysis solution (1× lysis buffer, Cell Signaling Technologies (CST #9803) supplemented with Piarce™ protease inhibitors, #A32953, Thermo Fisher Scientific, TFS). Lysates were collected and clarified of cell debris by spinning at 10K rpm for 10 minutes. A specific volume of supernatant was retrieved for protein quantification (Pierce™ BCA kit, TFS #23225) and for Western analysis. Loading buffer supplemented with EDTA and reducing agent was added to each supernatant. A specific volume of supernatant (determined by protein assay: […] loaded per sample) was loaded into a NuPAGE™ 4-12% Bis-Tris gel (TFS). Samples were run at 165V in MOPS running buffer for 2 hours and then transferred to PVDF blotting membrane using a dry blotting system (iBlot2, TFS). Membranes were blocked in Tris-buffered saline supplemented with Tween, 0.1% (TBST) containing 5% non-fat dry milk, (AmericanBio). Following block, membranes were washed once with TBST. […] Membranes were washed 3× with TBST prior to addition of secondary antibody (1:10 000, anti-rabbit HRP-linked, CST #7074) in TBST with 3% BSA and then incubated at room temperature for one hour. Membranes were then washed 3× with TBS and signal developed by exposure to developer (SuperSignal West Femto, TFS) for 5 minutes. Membranes were then immediately imaged using a BioRad Chemidoc.

EGFR L858R/T790M/C797S = EGFR L858R/T790M/C797S (Homo sapiens (Human), UniProt P00533, C797S/L858R/T790M); assay: TR-FRET assay for ERBB kinases; format: biochemical; conditions: geometric mean if measured more than once
Protocol: (§2) TR-FRET Assay for ERBB Kinases
(§3) All compounds and PROTACs were serially diluted in three-fold increments using 100% DMSO, followed by an intermediate 10-fold dilution using Buffer A (50 mM HEPES, pH 7.5, 50 mM NaCl, 10 mM MgCl2, 1 mM DTT, and 0.1% Pluronic F-68). […] Next, 10 uL of protein kinase in Buffer A was added to each well of the assay plate and pre-incubated with compound for 10 minutes. Kinase reactions were then initiated by addition of 5 uL substrate mix containing 3 mM ATP and 30 uM fluorescein-labeled Poly-GluTyr (Thermo Fisher, #PV3610) in Buffer A and allowed to proceed for 10 minutes at room temperature. Reactions were quenched by addition of a 5 uL mixture containing 5 nM LanthaScreen® Tb-pY20 Antibody (Thermo Fisher, #PV3552) and 40 mM EDTA in Buffer A. Assay plates were then read using a Synergy2 (Biotek Instruments, Winooski, Vt.) via excitation thru a 340/20 nm bandpass filter and emission collected thru 490/10 nm (donor) and 520/25 nm (acceptor) bandpass filters.

EGFR WT = EGFR WT (Homo sapiens (Human), UniProt P00533); assay: TR-FRET assay for ERBB kinases; format: biochemical; conditions: geometric mean if measured more than once
Protocol: as §2, §3

EGFR L858R/T790M = EGFR L858R/T790M (Homo sapiens (Human), UniProt P00533, L858R/T790M); assay: TR-FRET assay for ERBB kinases; format: biochemical; conditions: geometric mean if measured more than once
Protocol: as §2, §3

EGFR Exon20NPG = EGFR Exon20NPG (Homo sapiens (Human), UniProt P00533, INS770NPG); assay: TR-FRET assay for ERBB kinases; format: biochemical; conditions: geometric mean if measured more than once
Protocol: as §2
All compounds and PROTACs were serially diluted in three-fold increments using 100% DMSO, followed by an intermediate 10-fold dilution using Buffer A (50 mM HEPES, pH 7.5, 50 mM NaCl, 10 mM MgCl2, 1 mM DTT, and 0.1% Pluronic F-68). Two microliters of serially diluted compound or PROTAC were then transferred to black 384-well Proxiplates (PerkinElmer, #6008260) using an Integra Viaflo96. Next, 10 uL of protein kinase in Buffer A was added to each well of the assay plate and pre-incubated with compound for 10 minutes. Kinase reactions were then initiated by addition of 5 uL substrate mix containing 3 mM ATP and 30 uM fluorescein-labeled Poly-GluTyr (Thermo Fisher, #PV3610) in Buffer A and allowed to proceed for 10 minutes at room temperature. Reactions were quenched by addition of a 5 uL mixture containing 5 nM LanthaScreen® Tb-pY20 Antibody (Thermo Fisher, #PV3552) and 40 mM EDTA in Buffer A. Assay plates were then read using a Synergy2 (Biotek Instruments, Winooski, Vt.) via excitation thru a 340/20 nm bandpass filter and emission collected thru 490/10 nm (donor) and 520/25 nm (acceptor) bandpass filters.

[2] = biological target: EGFR L858R/T790M double mutant (H1975) (Homo sapiens (Human), UniProt P00533, L858R/T790M); assay: EGFR protein degradation assay (Western blot); format: cell-based; conditions: 72 hours, 300 nM to 10 nM
Protocol: as §1
Cells expressing the appropriate form of EGFR were seeded in 6-well plates (300,000 cells per well) and allowed to adhere to the plate overnight. […] To harvest cells, media was removed and cells were washed once with ice-cold phosphate-buffered saline (PBS) prior to the addition of 400 μl lysis buffer (Cell Signaling Technology) supplemented with a protease inhibitor cocktail (Thermo Scientific). Cells were scraped from the plate and the cell lysate transferred to an Eppendorf tube and then clarified by a single spin at 10 000 rpm for 10 minutes. The protein concentration of each lysate was determined (BCA kit, Thermo Scientific) prior to the addition of loading buffer (Invitrogen) and reducing agent (Invitrogen). 10 μg protein of each lysate was loaded on an SDS/PAGE gel and run at 165V for 2 hours. Following transfer to a PVDF membrane (iBlot2, Thermo Fisher Scientific), the membrane was blocked in Tris-buffered saline containing 0.1% Tween-20 (TBS-T) and supplemented with 5% powdered milk for 1 hour. Membranes were then probed with EGFR and tubulin (loaded control) primary antibodies in TBS-T containing 3% bovine serum albumin (BSA) overnight at 4° C. Membranes were washed thrice with TBS-T before incubation with secondary antibody in TBS-T containing 3% bovine serum albumin (BSA) and incubated for 1 hour at room temperature. Following 3 further washes with TBS, membrane proteins of interest were detected by enzyme-linked chemiluminescence (ECL) using a Chemidoc (Bio-Rad).

Sequence of EGFR Exon20NPG (P00533 other isoform, or with tags, fused parts or gaps del 1-694/ins NPG behind 770 limits assumed): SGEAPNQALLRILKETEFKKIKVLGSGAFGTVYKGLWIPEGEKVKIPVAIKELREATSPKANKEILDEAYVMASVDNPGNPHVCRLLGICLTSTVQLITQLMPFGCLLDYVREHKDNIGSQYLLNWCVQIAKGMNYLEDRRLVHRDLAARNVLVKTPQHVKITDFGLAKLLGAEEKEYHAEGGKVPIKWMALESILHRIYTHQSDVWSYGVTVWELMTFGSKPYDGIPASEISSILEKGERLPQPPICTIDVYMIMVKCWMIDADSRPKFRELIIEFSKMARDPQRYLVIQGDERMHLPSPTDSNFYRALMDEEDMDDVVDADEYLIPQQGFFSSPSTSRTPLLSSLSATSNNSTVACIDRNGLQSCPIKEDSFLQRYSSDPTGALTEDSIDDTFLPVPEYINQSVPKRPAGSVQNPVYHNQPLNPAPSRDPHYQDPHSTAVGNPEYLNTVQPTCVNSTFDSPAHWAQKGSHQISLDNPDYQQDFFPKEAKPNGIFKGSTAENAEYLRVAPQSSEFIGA
Sequence of EGFR L858R/T790M/C797S triple mutant (H520*) (P00533 25-1210 T790M/C797S/L858R): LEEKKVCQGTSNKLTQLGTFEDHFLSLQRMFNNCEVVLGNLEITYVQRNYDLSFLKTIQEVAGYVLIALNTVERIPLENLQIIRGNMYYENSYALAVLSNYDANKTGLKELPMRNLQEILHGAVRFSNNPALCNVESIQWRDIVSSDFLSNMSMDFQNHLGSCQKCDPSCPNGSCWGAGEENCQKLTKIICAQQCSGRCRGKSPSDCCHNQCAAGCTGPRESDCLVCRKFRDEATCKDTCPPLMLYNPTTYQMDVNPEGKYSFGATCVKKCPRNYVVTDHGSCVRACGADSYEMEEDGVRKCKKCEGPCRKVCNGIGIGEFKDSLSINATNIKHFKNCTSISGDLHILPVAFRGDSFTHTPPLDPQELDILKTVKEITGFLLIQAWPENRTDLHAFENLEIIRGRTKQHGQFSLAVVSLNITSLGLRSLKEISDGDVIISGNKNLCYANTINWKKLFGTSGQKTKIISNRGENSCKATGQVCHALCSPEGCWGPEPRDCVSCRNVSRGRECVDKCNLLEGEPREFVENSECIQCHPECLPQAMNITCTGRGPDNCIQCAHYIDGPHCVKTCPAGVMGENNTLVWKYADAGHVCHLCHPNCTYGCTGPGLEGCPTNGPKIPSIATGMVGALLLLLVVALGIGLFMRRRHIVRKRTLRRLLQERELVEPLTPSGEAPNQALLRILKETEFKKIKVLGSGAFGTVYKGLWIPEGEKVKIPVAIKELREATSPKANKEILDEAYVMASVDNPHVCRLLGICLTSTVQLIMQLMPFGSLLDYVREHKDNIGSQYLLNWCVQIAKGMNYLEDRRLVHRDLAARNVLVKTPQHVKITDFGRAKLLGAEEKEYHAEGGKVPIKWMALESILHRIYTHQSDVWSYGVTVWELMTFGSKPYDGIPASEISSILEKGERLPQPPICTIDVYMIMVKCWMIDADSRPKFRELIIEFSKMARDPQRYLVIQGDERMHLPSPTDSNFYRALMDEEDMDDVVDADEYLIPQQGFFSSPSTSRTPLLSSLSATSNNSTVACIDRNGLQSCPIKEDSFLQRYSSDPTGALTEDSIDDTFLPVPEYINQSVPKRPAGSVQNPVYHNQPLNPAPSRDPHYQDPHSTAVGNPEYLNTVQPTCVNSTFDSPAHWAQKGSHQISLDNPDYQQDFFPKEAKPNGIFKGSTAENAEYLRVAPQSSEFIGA
Sequence of EGFR L858R/T790M/C797S (P00533 25-1210 T790M/C797S/L858R): as above
Sequence of EGFR L858R/T790M (P00533 25-1210 T790M/L858R): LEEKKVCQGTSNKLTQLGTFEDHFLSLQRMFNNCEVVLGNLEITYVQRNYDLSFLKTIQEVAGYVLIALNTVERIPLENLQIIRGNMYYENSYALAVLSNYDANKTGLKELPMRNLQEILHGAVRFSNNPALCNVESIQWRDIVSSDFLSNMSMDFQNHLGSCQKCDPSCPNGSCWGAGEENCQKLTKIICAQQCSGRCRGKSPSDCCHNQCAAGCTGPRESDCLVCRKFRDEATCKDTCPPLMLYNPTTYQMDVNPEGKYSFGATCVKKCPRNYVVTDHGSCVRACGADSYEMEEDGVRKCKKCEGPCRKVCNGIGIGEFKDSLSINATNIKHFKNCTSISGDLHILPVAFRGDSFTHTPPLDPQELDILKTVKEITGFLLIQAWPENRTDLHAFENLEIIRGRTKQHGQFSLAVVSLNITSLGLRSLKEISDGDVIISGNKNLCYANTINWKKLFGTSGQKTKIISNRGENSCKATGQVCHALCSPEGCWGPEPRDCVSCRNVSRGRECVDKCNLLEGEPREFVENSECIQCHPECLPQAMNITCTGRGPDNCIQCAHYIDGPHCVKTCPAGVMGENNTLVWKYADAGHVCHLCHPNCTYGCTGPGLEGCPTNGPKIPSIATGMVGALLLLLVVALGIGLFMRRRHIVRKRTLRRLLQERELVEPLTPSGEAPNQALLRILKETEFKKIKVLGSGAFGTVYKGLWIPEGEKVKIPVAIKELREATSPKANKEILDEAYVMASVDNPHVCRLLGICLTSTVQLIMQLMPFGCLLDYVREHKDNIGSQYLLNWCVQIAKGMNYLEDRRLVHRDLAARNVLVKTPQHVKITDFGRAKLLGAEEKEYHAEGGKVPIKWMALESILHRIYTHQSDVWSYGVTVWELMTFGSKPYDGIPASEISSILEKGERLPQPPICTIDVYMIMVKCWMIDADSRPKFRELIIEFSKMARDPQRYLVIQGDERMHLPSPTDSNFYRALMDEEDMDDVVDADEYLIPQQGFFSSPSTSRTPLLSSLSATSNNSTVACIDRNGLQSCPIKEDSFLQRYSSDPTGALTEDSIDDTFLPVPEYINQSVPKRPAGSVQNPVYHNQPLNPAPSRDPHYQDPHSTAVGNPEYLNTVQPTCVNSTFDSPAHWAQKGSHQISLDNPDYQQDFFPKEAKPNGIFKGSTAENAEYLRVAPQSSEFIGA

| SMILES | EGFR protein remaining, EGFR L858R/T790M/C797S triple mutant [1] | IC50 (EGFR L858R/T790M/C797S) [nM] | IC50 (EGFR WT) [nM] | IC50 (EGFR L858R/T790M) [nM] | IC50 (EGFR Exon20NPG) [nM] | EGFR protein remaining, EGFR L858R/T790M double mutant [2] |
| --- | --- | --- | --- | --- | --- | --- |
| Cc1ncsc1-c1ccc(CNC(=O)[C@@H]2C[C@@H](O)CN2C(=O)[C@H](C(C)C)N2Cc3ccccc3C2=O)c(OCCOCCOCC#Cc2cccc3c2C(=O)N([C@@H](C(=O)Nc2nccs2)c2cc(F)ccc2O)C3)c1 (single isomer, unassigned) [Example 256] | C (>80% EGFR protein remaining after 72 hours of incubation with the test compound at a concentration of 300 nM) | 1400 | 2500 | 14000 | 6100 | C (>80% EGFR protein remaining after 72 hours of incubation with the test compound at a concentration of 300 nM) |
| Cc1ncsc1-c1ccc(CNC(=O)[C@@H]2C[C@@H](O)CN2C(=O)[C@H](C(C)C)N2Cc3ccccc3C2=O)c(OCCOCCOCC#Cc2cccc3c2C(=O)N([C@@H](C(=O)Nc2nccs2)c2cc(F)ccc2O)C3)c1 (single isomer, unassigned) [Example 257] | C (>80% EGFR protein remaining after 72 hours of incubation with the test compound at a concentration of 300 nM) | 2700 | 5700 | > 30000 | > 30000 | C (>80% EGFR protein remaining after 72 hours of incubation with the test compound at a concentration of 300 nM) |
| O=C1CCC(N2C(=O)c3ccc(OCCOCCOCCOCCCc4cccc5c4C(=O)N(C(C(=O)Nc4nccs4)c4cc(F)ccc4O)C5)cc3C2=O)C(=O)N1 (stereo not drawn) [Example 283, 2-(7-(3-(2-(2-(2-((2-(2,6-dioxopiperidin-3-yl)-1,3-dioxoisoindolin-5-yl)oxy)ethoxy)ethoxy)ethoxy)propyl)-1-oxoisoindolin-2-yl)-2-(5-fluoro-2-hydroxyphenyl)-N-(thiazol-2-yl)acetamide] | C (>80% EGFR protein remaining after 72 hours of incubation with the test compound at a concentration of 300 nM) | 820 | 1200 | 2800 | 4600 | – |
| Cc1ncsc1-c1ccc([C@H](C)NC(=O)[C@H]2C[C@H](O)CN2C(=O)[C@@H](NC(=O)COCCOCCOCCOCCOCCOc2ccc(-c3nccc(Nc4cc5c(cn4)nc(C)n5C(C)C)n3)cc2)C(C)(C)C)cc1 [compound 280] | C (>80% EGFR protein remaining after 72 hours of incubation with the test compound at a concentration of 300 nM) | > 30000 | > 30000 | > 30000 | > 30000 | – |
| Cc1ncsc1-c1ccc([C@H](C)NC(=O)[C@H]2C[C@H](O)CN2C(=O)[C@@H](NC(=O)COCCOCCOCCOCCOC2CCN(c3nccc(Nc4cc5c(cn4)nc(C)n5C(C)C)n3)CC2)C(C)(C)C)cc1 [compound 284] | C (>80% EGFR protein remaining after 72 hours of incubation with the test compound at a concentration of 300 nM) | 12000 | 14000 | > 30000 | 30000 | – |
| O=C1CCC(N2C(=O)c3ccc(N4CCC(CN5CCC(OCCCc6cccc7c6C(=O)N(C(C(=O)Nc6nccs6)c6cc(F)ccc6O)C7)CC5)CC4)cc3C2=O)C(=O)N1 (stereo not drawn) [compound 297] | B (≤80% and >50% EGFR protein remaining after 72 hours of incubation with the test compound at a concentration between 300 nM and 10 nM) | 310 | 1800 | 1800 | – | – |
| O=C1CCC(N2C(=O)c3ccc(N4CCC(CN5CCC(OC/C=C/c6cccc7c6C(=O)N(C(C(=O)Nc6nccs6)c6cc(F)ccc6O)C7)CC5)CC4)cc3C2=O)C(=O)N1 (stereo not drawn) [compound 298] | C (>80% EGFR protein remaining after 72 hours of incubation with the test compound at a concentration of 300 nM) | 540 | 1600 | 1400 | – | – |
| Cc1ncsc1-c1ccc([C@H](C)NC(=O)[C@@H]2C[C@@H](O)CN2C(=O)[C@@H](NC(=O)COCCOCCOCCOCCOCCOCCOCC#Cc2cccc3c2C(=O)N(C(C(=O)Nc2nccs2)c2cc(F)ccc2O)C3)C(C)(C)C)cc1 (stereo partly drawn) [compound 299] | C (>80% EGFR protein remaining after 72 hours of incubation with the test compound at a concentration of 300 nM) | 200 | 240 | 4600 | – | – |
| O=C1CCC(N2C(=O)c3cccc(NCCOCCOCCOCCOCCOCCOCCCc4cccc5c4C(=O)N(C(C(=O)Nc4nccs4)c4cc(F)ccc4O)C5)c3C2=O)C(=O)N1 (stereo not drawn) [compound 300] | C (>80% EGFR protein remaining after 72 hours of incubation with the test compound at a concentration of 300 nM) | 3100 | 2700 | 20000 | – | – |
| COC1CCN(c2nccc(Nc3cc4c(cn3)nc(COCCN3CCN(c5ccc(OCCCOCC(=O)N[C@H](C(=O)N6C[C@H](O)C[C@H]6C(=O)NCc6ccc(-c7scnc7C)cc6)C(C)(C)C)cc5)CC3)n4C(C)C)n2)CC1 [compound 303] | A (≤50% EGFR protein remaining after 72 hours of incubation with the test compound at a concentration between 300 nM and 10 nM) | 250 | > 30000 | 550 | – | – |
| CC(C)n1c(COCCN2CCN(c3ccc(OCCCN4CCN(c5ccc6c(c5)C(=O)N(C5CCC(=O)NC5=O)C6=O)CC4)cc3)CC2)nc2cnc(Nc3ccnc(-c4cnn(S(=O)(=O)C5CC5)c4)n3)cc21 (stereo not drawn) [compound 305] | C (>80% EGFR protein remaining after 72 hours of incubation with the test compound at a concentration of 300 nM) | 1.3 | 2100 | 9.8 | – | – |
